Series [1] is described as follows: Particle size analysis of Compound A nanosuspension / microsuspension formulations. Type of series: physicochemical. Conditions: jet mill feed pressure 4.5 bar, milling pressure 5.0 bar, before ball milling. As to the method:
Milling was performed in a high energy ball mill with suitable sized-spherical, polymeric or Zirconium oxide beads. Compound A and excipient(s) as indicated in Table 1 were combined in deionized water per the indicated batch size and transferred to the milling chamber. Nanosuspensions A through D were generated utilizing process conditions denoted in Table 2.
Compound A was first mechanically jet-milled to reduce initial particle size prior to ball milling. The jet mill feed pressure was 4.5 bar and milling pressure was 5.0 bar. The resulting particle size of jet milled Compound A was 5-6 microns […]. […]
Compound A in a concentration range of between about 20 mg/mL to about 100 mg/mL (2-10% w/w), along with parenteral grade olive oil and 1% sorbitan monooleate [SPAN®80], was nano-milled using a high energy mill at 3000 rpm with 0.3 mm beads or 0.65 mm beads to produce microsuspensions. […] Performance of an amorphous microsuspension of Compound A was evaluated in Male SD rats. […] At each time point, approximately 0.2 mL blood was collected via jugular vein and analyzed by LC-MS/MS for mean plasma concentration of Compound A (FIG. 4). Pharmacokinetics determined that a target Cmin of 3 ng/mL was desired, which is denoted by the black dashed line in FIG. 4. […]

Series [2] concerns SYO-1 human biphasic synovial sarcoma tumor cells. As to the kind of experiment: Nanosuspension mouse efficacy study, SYO-1 xenograft tumor volume. In kind it is in vivo. Conditions: SYO-1 xenograft mice, Cohorts 2-8, IV, SC, IM, 1-200 mg/kg, over 4 weeks, FIG. 3B. As to the method:
(§1) Each mouse was inoculated subcutaneously on the right flank with a single cell suspension of SYO-1 human biphasic synovial sarcoma tumor cells (5×10^6) in 100 μL DMEM with 10% FBS for the tumor development. Treatment (Table 6) was started when mean tumor volume reached about 100-150 mm^3 for the efficacy cohorts. Based on the tumor volume, mice were randomly assigned to respective groups using a computer-generated randomization procedure. Corresponding formulations are in Table 6. For each dosing cohort, dosing volume was calculated based on concentration of the formulation and dose volume (ml/kg). Vehicle for IV was 20% HP-β-CD in 5 mM citrate buffer of pH 3, with adjustment to a final PH of 5. Body weight of all animals was measured and recorded twice a week throughout the study. The measurement of tumor size was conducted twice a week with a caliper and recorded. Tumor volume was used for calculation of tumor growth inhibition (TGI) value of the tumors in the treated and the control cohorts, respectively, on a given day after tumor inoculation.
64 plasma samples were collected at two time points (672 h and 676 h) from efficacy study cohorts. 64 tumor samples were collected at two time points (672 h and 676 h) from efficacy cohorts 1-8 and cut into 3 pieces: one piece for PK analysis, one piece for WB analysis (BRD9), and one piece snap frozen for further analysis (n=4). […]

Series [3] is described as follows: Body weight / tolerability in mouse efficacy study. In kind it is in vivo. Conditions: tumor-bearing mice, all doses and all modes of administration, 4 weeks, FIG. 3A. As to the method: as §1

As to `COc1cc(-c2cn(C)c(=O)c3cnc(N4CCC4)cc23)cc(OC)c1CN1CCC(CN2CCC3(CC2)CN(c2ccc4c(c2)C(=O)N(C2CCC(=O)NC2=O)C4)C3)CC1` (stereo not drawn) [Compound A, 3-(6-(7-((1-(4-(6-(azetidin-1-yl)-2-methyl-1-oxo-1,2-dihydro-2,7-naphthyridin-4-yl)-2,6-dimethoxybenzyl)piperidin-4-yl)methyl)-2,7-diazaspiro[3.5]nonan-2-yl)-1-oxoisoindolin-2-yl)piperidine-2,6-dione], in series [1], the “particle size (D50) of jet milled Compound A” value is 5-6 microns. The “tumor growth (tumor volume) versus Vehicle control” value in series [2] is on record as “slowed tumor growth significantly”. In addition, the body weight entry in series [3] is “remaining fairly constant”.

The values are drawn from patent publication US20260224559A1, “FORMULATIONS FOR TREATING CANCER” (FOGHORN THERAPEUTICS INC., priority 2023, published 2026).
